Test results as given in patent US20210161804A1, “FLUTICASONE AND VILANTEROL FORMULATION AND INHALER” (KINDEVA DRUG DELIVERY L.P., priority 2018, published 2021).

Legend:
[1] = Next Generation Impactor (NGI) aerodynamic particle size distribution; assay type: physicochemical
Method: The aerodynamic particle size distribution emitted from each MDI was evaluated using a Next Generation Impactor Instrument (MSP Corporation, Shoreview, Minn.). For each test, an MDI was attached to the throat component (Emmace anatomical throat, Emmace Consulting, Lund, Sweden) of the NGI instrument and actuated 6 times into the instrument. Prior to each actuation the MDI was vigorously shaken Immediately prior to attachment, the MDI was primed by actuating 4 times. Prior to each priming shot the MDI was vigorously shaken. The flow rate through the instrument during testing was regulated at 30 L/minute. The test sample (fluticasone furoate and vilanterol trifenatate) deposited on the valve stem, actuator, throat assembly (Emmace anatomical throat), individual uncoated collection cups 1-7, micro-orifice collector (MOC), and final filter component was collected by rinsing each individual component with a known volume of collection solvent. The recovered samples were then analyzed for sample content using an HPLC assay with reference to a known standard. An HPLC instrument with a UV detector (220 nm at 0 minutes, 240 nm at 5 minutes) and a symmetry shield RP-18, 4.6-150 mm column (25° C. column temp) was used. The mobile phase was 10 mM SDS, 60:40 (v/v) […]:50 mM NH4OAc, pH 5.5). The injection volume was 50 microliters and the flow rate was 1.0 mL/min.
In Table 1 the fine particle mass (FPM), impactor sized mass (ISM), mass median aerodynamic diameter (MMAD), and throat hold up data for fluticasone furoate (FF) and vilanterol trifenatate (VT) is presented. At each time point 3 individual MDIs were tested and the result is presented as the mean value.
Total Ex-valve content was determined as the sum of the sample content from all twelve analyzed components (valve stem through filter) (reported as micrograms/actuation).
Throat hold up was determined as the ratio of the sample content from the throat assembly divided by the total ex-valve content.
Aerodynamic particle size from a Relvar® Ellipta® 92/22 (fluticasone furoate/vilanterol trifenatate) dry powder inhaler was evaluated as described above for NGI studies with the following changes. The Relvar device was not primed prior to analysis, nor was it shaken prior to actuation. For each test the Relvar was actuated once. An adaptor was prepared and used to obtain a good fit between device mouthpiece and the Emmace throat. A flow rate of approximately 80 L/min was used to achieve a 4 kPa pressure drop in the NGI. A pre-separator was used between the throat assembly and cup 1. Cups 1 to 7 were pre-coated with 50:50 (v/v) glycerol:methanol.
In tables 1-8 above, FPM and ISM are reported as micrograms (mcg) per actuation and MMAD is reported in microns (um). FPM (Fine Particle Mass) was determined as the sum of the sample content determined for cups 3-7, the MOC, and the filter. ISM (Impactor Sized Mass) was determined as the sum of the sample content determined for cups 2-7, the MOC, and the filter. In the examples, the concentrations of fluticasone furoate, vilanterol trifenatate, ethanol, and HFA-227 in the suspension formulations are reported as weight percent (wt. %).

[2] = Through life delivered dose (unit spray collection apparatus); assay type: physicochemical; conditions: beginning, middle, end of unit, 3 MDIs, 28.3 L/minute
Method: The through life delivered dose was determined using standard unit spray collection apparatus (USCA) fitted with a filter. For each determination, an MDI was attached to the USCA using a coupler. Immediately prior to attachment, the MDI was vigorously shaken. Prior to collection of the test sample, the MDI was primed by actuating four times and before each priming actuation the MDI was vigorously shaken. For each example tested, three MDIs were used. Each MDI was tested with a single actuation into the instrument at the beginning, middle, and end of the unit resulting in 3 actuations per MDI (9 actuations total). The flow rate through the equipment was regulated to 28.3 L/minute+/−0.5 L/minute. The test sample deposited in the USCA was collected by rinsing with a known volume of collection solvent. The recovered samples were then analyzed for sample content using an HPLC assay with reference to a known standard. An HPLC instrument with a UV detector (220 nm at 0 minutes, 240 nm at 5 minutes) and a symmetry shield RP18, 150 mm×4.6 mm (3.5 microns) column (temperature 25° C.) was used. The mobile phase was 10 mM SDS (sodium dodecyl sulphate), 60:40 (v/v) acetetonitrile:50 mM NH4OAc (ammonium acetate), pH 5.50. The injection volume was 50 microliters and the flow rate was 1.0 mL/minute.

[3] = Comparative Example 1: Relvar Ellipta 92/22 dry powder inhaler, actuated once, approximately 80 L/min (4 kPa), pre-separator
[4] = Comparative Example 1: Relvar Ellipta 92/22 dry powder inhaler, approximately 80 L/min (4 kPa), pre-separator
[5] = MDI of Example 1: FF MMD about 3.7 microns, VT MMD about 1.4 microns, HFA-227, 30 L/minute
[6] = MDI of Example 1: FF MMD about 3.7 microns, VT MMD about 1.4 microns, HFA-227, 30 L/minute, Emmace anatomical throat
[7] = MDI of Example 1: FF MMD about 3.7 microns, VT MMD about 1.4 microns, HFA-227, per actuation, 30 L/minute
[8] = MDI of Example 1: FF MMD about 3.7 microns, VT MMD about 1.4 microns, HFA-227, per actuation, 30 L/minute, mean of 3 MDIs
[9] = MDI of Example 2: FF MMD about 2.9 microns, VT MMD about 1.4 microns, HFA-227, 30 L/minute
[10] = MDI of Example 2: FF MMD about 2.9 microns, VT MMD about 1.4 microns, HFA-227, per actuation, 30 L/minute
[11] = MDI of Example 3: FF MMD about 3.7 microns, VT MMD about 4.2 microns, HFA-227, 30 L/minute
[12] = MDI of Example 3: FF MMD about 3.7 microns, VT MMD about 4.2 microns, HFA-227, per actuation, 30 L/minute
[13] = MDI of Example 4: FF MMD about 2.9 microns, VT MMD about 3.4 microns, HFA-227, 30 L/minute
[14] = MDI of Example 4: FF MMD about 2.9 microns, VT MMD about 3.4 microns, HFA-227, per actuation, 30 L/minute
[15] = MDI of Example 5: FF micronized MMD about 2.0 microns, VT high pressure homogenized MMD about 1.4 microns, HFA-227, 30 L/minute
[16] = MDI of Example 5: FF micronized MMD about 2.0 microns, VT high pressure homogenized MMD about 1.4 microns, HFA-227, per actuation, 30 L/minute
[17] = MDI of Example 6: FF MMD about 2.9 microns, VT MMD about 1.4 microns, 0.05% ethanol, HFA-227, 30 L/minute
[18] = MDI of Example 6: FF MMD about 2.9 microns, VT MMD about 1.4 microns, 0.05% ethanol, HFA-227, per actuation, 30 L/minute
[19] = MDI of Example 7: FF MMD about 2.9 microns, VT MMD about 1.4 microns, 0.5% ethanol, HFA-227, 30 L/minute
[20] = MDI of Example 7: FF MMD about 2.9 microns, VT MMD about 1.4 microns, 0.5% ethanol, HFA-227, per actuation, 30 L/minute
[21] = MDIs of Example 8 (58 microliter primeless valve, no ethanol, HFA-227)
[22] = MDIs of Example 9 (58 microliter primeless valve, 0.05% ethanol, HFA-227)
[23] = MDIs of Example 10 (58 microliter primeless valve, 0.5% ethanol, HFA-227)

| SMILES | FPM (fine particle mass) [1, 3] [µg] | ISM (impactor sized mass) [1, 3] [µg] | MMAD (mass median aerodynamic diameter) [1, 4] [um] | Throat hold up [1, 4] [%] | MMAD (mass median aerodynamic diameter) [1, 5] [um] | Throat hold up [1, 6] [%] | ISM (impactor sized mass) [1, 7] [µg] | FPM (fine particle mass) [1, 8] [µg] | MMAD (mass median aerodynamic diameter) [1, 9] [um] | Throat hold up [1, 9] [%] | FPM (fine particle mass) [1, 10] [µg] | ISM (impactor sized mass) [1, 10] [µg] | MMAD (mass median aerodynamic diameter) [1, 11] [um] | Throat hold up [1, 11] [%] | FPM (fine particle mass) [1, 12] [µg] | ISM (impactor sized mass) [1, 12] [µg] | MMAD (mass median aerodynamic diameter) [1, 13] [um] | Throat hold up [1, 13] [%] | FPM (fine particle mass) [1, 14] [µg] | ISM (impactor sized mass) [1, 14] [µg] | other results |
| --- | --- | --- | --- | --- | --- | --- | --- | --- | --- | --- | --- | --- | --- | --- | --- | --- | --- | --- | --- | --- | --- |
| C[C@@H]1C[C@H]2[C@@H]3C[C@H](F)C4=CC(=O)C=C[C@]4(C)[C@@]3(F)[C@@H](O)C[C@]2(C)[C@@]1(OC(=O)c1ccco1)C(=O)SCF [FF, fluticasone furoate] | 26.5 | 31.5 | 3.4 | 26.0 | 3.5 | 52.8 | 27.7 | 19.6 | 3.1 | 38.8 | 27.0 | 35.9 | 4.0 | 47.0 | 25.0 | 37.5 | 3.2 | 43.0 | 28.5 | 38.4 | MMAD (mass median aerodynamic diameter) [1, 15]: 2.9 um; Throat hold up [1, 15]: 31.5%; FPM (fine particle mass) [1, 16]: 30.2 µg; ISM (impactor sized mass) [1, 16]: 35.7 µg; MMAD (mass median aerodynamic diameter) [1, 17]: 3.2 um; Throat hold up [1, 17]: 48.6%; FPM (fine particle mass) [1, 18]: 23.1 µg; ISM (impactor sized mass) [1, 18]: 31.5 µg; MMAD (mass median aerodynamic diameter) [1, 19]: 3.0 um; Throat hold up [1, 19]: 46.0%; FPM (fine particle mass) [1, 20]: 26.3 µg; ISM (impactor sized mass) [1, 20]: 34.9 µg; mean through life delivered dose [2, 21]: 57.1 micrograms/actuation; mean through life delivered dose [2, 22]: 55.5 micrograms/actuation; mean through life delivered dose [2, 23]: 58.0 micrograms/actuation |
| OCc1cc([C@@H](O)CNCCCCCCOCCOCc2c(Cl)cccc2Cl)ccc1O [VT, vilanterol trifenatate] | 11.6 | 12.3 | 1.8 | 16.1 | 1.9 | 34.0 | 10.8 | 10.0 | 2.0 | 28.5 | 9.9 | 10.8 | 3.7 | 43.4 | 6.5 | 8.9 | 3.1 | 41.0 | 7.5 | 9.8 | MMAD (mass median aerodynamic diameter) [1, 15]: 2.6 um; Throat hold up [1, 15]: 31.1%; FPM (fine particle mass) [1, 16]: 8.4 µg; ISM (impactor sized mass) [1, 16]: 9.5 µg; MMAD (mass median aerodynamic diameter) [1, 17]: 2.0 um; Throat hold up [1, 17]: 37.8%; FPM (fine particle mass) [1, 18]: 8.9 µg; ISM (impactor sized mass) [1, 18]: 9.9 µg; MMAD (mass median aerodynamic diameter) [1, 19]: 2.0 um; Throat hold up [1, 19]: 36.1%; FPM (fine particle mass) [1, 20]: 10.3 µg; ISM (impactor sized mass) [1, 20]: 11.2 µg; mean through life delivered dose [2, 21]: 13.8 micrograms/actuation; mean through life delivered dose [2, 22]: 13.3 micrograms/actuation; mean through life delivered dose [2, 23]: 14.4 micrograms/actuation |
